Measured values taken from US9428507B2, “Compounds for the treatment of malaria” (The Broad Institute, Inc., priority 2013, dated 2016).

system: Dd2 strain of P. falciparum; experiment: Activity against the Dd2 strain of P. falciparum (SYBR Green I, 72-h incubation); type: cell-based; settings: Plasmodium falciparum, DD2, 72 h, read-out: EC^50 Dd2
Procedure, shortened: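 Dd2 parasites at 1% parasitemia and 1.0% hematocrit in albumax II screening medium, 72 h at 37° C under 93% N2/4% CO2/3% O2; final DMSO 0.125%. Growth read as SYBR Green I fluorescence (485/530 nm) after lysis and 24 h staining. 20 μM mefloquine defined background, DMSO baseline.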

| Compound | EC50 |
| --- | --- |
| COc1ccc2c3c([nH]c2c1)[C@H](CO)N(C(C)=O)CC31CCN(C(=O)Nc2cccc(F)c2)CC1 [Compound 37, (R)-2′-acetyl-N-(3-fluorophenyl)-1′-(hydroxymethyl)-7′-methoxy-1′,2′,3′,9′-tetrahydrospiro[piperidine-4,4′-pyrido[3,4-b]indole]-1-carboxamide] | 577 nM |
| COc1ccc2c3c([nH]c2c1)[C@H](CO)N(Cc1ccccc1)CC31CCN(C(=O)Nc2ccccc2F)CC1 [Compound 143, (R)-2′-benzyl-N-(2-fluorophenyl)-1′-(hydroxymethyl)-7′-methoxy-1′,2′,3′,9′-tetrahydrospiro [piperidine-4,4′-pyrido[3,4-b]indole]-1-carboxamide] | 5000 nM |
| COc1ccc2c3c([nH]c2c1)[C@H](CN(C)C)N(C(C)=O)CC31CCN(C(=O)Nc2ccccc2F)CC1 [Compound 32, (S)-2′-acetyl-1′-((dimethylamino)methyl)-N-(2-fluoropheny1)-7′-methoxy-1′,2′,3′,9′-tetrahydrospiro[piperidine-4,4′-pyrido[3,4-b]indole]-1-carboxamide] | 485 nM |
| COc1ccc2c3c([nH]c2c1)C(C)(C)NCC31CCN(C(=O)OC(C)(C)C)CC1 [Compound 11] | 4430 nM |
| COc1ccc2c3c([nH]c2c1)[C@H](CO)N(C(=O)c1ccccc1)CC31CCN(C(=O)Nc2ccccc2F)CC1 [Compound 50, (R)-2′-benzoyl-N-(2-fluorophenyl)-1′-(hydroxymethyl)-7′-methoxy-1′,2′,3′,9′-tetrahydrospiro[piperidine-4,4′-pyrido[3,4-b]indole]-1-carboxamide] | 1240 to 2250 nM |
| COC[C@H]1c2[nH]c3cc(OC)ccc3c2C2(CCN(C(=O)Nc3ccccc3F)CC2)CN1C(C)=O [Compound 69, (R)-2′-acetyl-N-(2-fluorophenyl)-7′-methoxy-1′-(methoxymethyl)-1′,2′,3′,9′-tetrahydrospiro [piperidine-4,4′-pyrido[3,4-b]indole]-1-carboxamide] | 9050 nM |
| COc1ccc2c3c([nH]c2c1)[C@H](CO)N(CC(F)(F)F)CC31CCN(C(=O)Nc2ccccc2F)CC1 [Compound 62, (R)-N-(2-fluorophenyl)-1′-(hydroxymethyl)-7′-methoxy-2′-(2,2,2-trifluoroethyl)-1′,2′,3′,9′-tetrahydrospiro[piperidine-4,4′-pyrido[3,4-b]indole]-1-carboxamide] | 4490 to 9480 nM |
| CCN1CC2(CCN(C(=O)Nc3ccccc3F)CC2)c2c([nH]c3cc(OC)ccc23)[C@@H]1CO [Compound 60, (R)-2′-ethyl-N-(2-fluorophenyl)-1′-(hydroxymethyl)-7′-methoxy-1′,2′,3′,9′-tetrahydrospiro [piperidine-4,4′-pyrido[3,4-b]indole]-1-carboxamide] | 4610 to 5790 nM |
| COc1ccc2c3c(n(C)c2c1)[C@H](COC(C)=O)N(C(C)=O)CC31CCN(C(=O)Nc2ccccc2F)CC1 [Compound 17, (R)-(2′-acetyl-1-((2-fluorophenyl)carbamoyl)-7′-methoxy-9′-methyl-1′,2′,3′,9′-tetrahydrospiro[piperidine-4,4′-pyrido[3,4-b]indol]-1′-yl)methylacetate] | 834 nM |
| COc1ccc2c3c([nH]c2c1)[C@H](CO)N(C(C)=O)CC31CCN(C(=O)Nc2cccc(Cl)c2)CC1 [Compound 13, (R)-2′-acetyl-N-(3-chlorophenyl)-1′-(hydroxymethyl)-7′-methoxy-1′,2′,3′,9′-tetrahydrospiro [piperidine-4,4′-pyrido[3,4-b]indole]-1-carboxamide] | 127 to 162 nM |
| COc1ccc2c3c([nH]c2c1)[C@H](CO)N(C(C)=O)CC31CCN(C(=O)Nc2ccccn2)CC1 [Compound 68, (R)-2′-acety1-1′-(hydroxymethyl)-7′-methoxy-N-(pyridin-2-yl)-1′,2′,3′,9′-tetrahydrospiro[piperidine-4,4′-pyrido[3,4-b]indole]-1-carboxamide] | 918 to 2270 nM |
| COc1ccc2c3c(n(C)c2c1)[C@H](CO)N(CC1CC1)CC31CN(C(=O)c2ccc3c(c2)OCO3)C1 [Compound 95, (R)-benzo[d] [1,3]dioxol-5-yl(2′-(cyclopropylmethyl)-1′-(hydroxymethyl)-7′-methoxy-9′-methyl-1′,2′,3′,9′-tetrahydrospiro [azetidine-3,4′-pyrido[3,4-b]indol]-1-yl)methanone] | 1260 nM |
| COc1ccc2c3c([nH]c2c1)[C@H](CO)N(C(=O)Nc1ccc(F)cc1)CC31CCN(S(=O)(=O)c2ccccc2)CC1 [Compound 80, (R)-N-(4-fluorophenyl)-1′-(hydroxymethyl)-7′-methoxy-1-(phenylsulfonyl)-3′,9′-dihydrospiro[piperidine-4,4′-pyrido[3,4-b]indole]-2′(1′H)-carboxamide] | 1300 nM |
| COc1ccc2c3c([nH]c2c1)[C@H](CO)N(C(C)=O)CC31CCN(CCc2ccccc2F)CC1 [Compound 27, (R)-1-(1-(2-fluorophenethyl)-1′-(hydroxymethyl)-7′-methoxyspiro[piperidine-4,4′-pyrido[3,4-b]indol]-2′(1′H,3′H,9′H)-yl) ethanone] | 2730 nM |
| COc1ccc2c3c(n(C)c2c1)[C@H](CO)N(C(C)=O)CC31CCN(C(=O)Nc2ccccc2F)CC1 [Compound 5, (R)-2′-acetyl-N-(2-fluorophenyl)-1′-(hydroxymethyl)-7′-methoxy-9′-methyl-1′,2′,3′,9′-tetrahydrospiro [piperidine-4,4′-pyrido[3,4-b]indole]-1-carboxamide] | 6480 nM |
| COc1ccc2c3c([nH]c2c1)[C@H](C)N(C(C)=O)CC31CCN(C(=O)Nc2ccccc2F)CC1 [Compound 48, (S)-2-acetyl-N-(2-fluorophenyl)-7′-methoxy-1'-methyl-1′,2′,3′,9′-tetrahydrospiro[piperidine-4,4′-pyrido[3,4-b]indole]-1-carboxamide] | 214 to 236 nM |
| CCC(=O)N1CC2(CCN(C(=O)Nc3ccccc3F)CC2)c2c([nH]c3cc(OC)ccc23)[C@H]1CO [Compound 113, (S)-N-(2-fluorophenyl)-1′-(hydroxymethyl)-7′-methoxy-2′-propionyl-1′,2′,3′,9′-tetrahydrospiro [piperidine-4,4′-pyrido[3,4-b]indole]-1-carboxamide] | 1100 nM |
| COc1ccc(NC(=O)N2CC3(C2)CN(C(=O)C2CCC2)[C@H](CO)c2c3c3ccc(OC)cc3n2C)cc1 [Compound 126, (S)-2′-(cyclobutanecarbonyl)-1′-(hydroxymethyl)-7′-methoxy-N-(4-methoxyphenyl)-9′-methyl-1′,2′,3′,9′-tetrahydrospiro [azetidine-3,4′-pyrido[3,4-b]indole]-1-carboxamide] | 437 nM |
| C=CCOC(=O)N1CC2(CCN(C(=O)Nc3ccccc3F)CC2)c2c([nH]c3cc(OC)ccc23)[C@@H]1CO [Compound 16, (R)-allyl 1-((2-fluorophenyl)carbamoyl)-1′-(hydroxymethyl)-7′-methoxy-3′,9′-dihydrospiro[piperidine-4,4′-pyrido[3,4-b]indole]-2′(1′H)-carboxylate] | 2400 nM |
| COc1ccc2c3c([nH]c2c1)[C@H](CO[Si](C)(C)C(C)(C)C)N(C(C)=O)CC31CCN(C(=O)Nc2cccnc2)CC1 [Compound 7] | 1380 nM |
| COc1ccc2c3c(n(C)c2c1)[C@@H](CO)N(C(=O)C1CCCC1)CC31CCN(C(=O)Nc2cccc(F)c2)CC1 [Compound 100, (S)-2′-(cyclopentanecarbonyl)-N-(3-fluorophenyl)-1′-(hydroxymethyl)-7′-methoxy-9′-methyl-1′,2′,3′,9′-tetrahydrospiro[piperidine-4,4′-pyrido[3,4-b]indole]-1-carboxamide] | 418 nM |
| COc1ccc2c3c(n(C)c2c1)[C@@H](CO)N(Cc1ccccc1OC)CC31CCN(CC2CC2)CC1 [Compound 83, (S)-(1-(cyclopropylmethyl)-7′-methoxy-2′-(2-methoxybenzyl)-9'-methyl-1′,2′,3′,9′-tetrahydrospiro [piperidine-4,4′-pyrido[3,4-b]indol]-1′-yl) methanol] | 522 nM |
| COc1ccc2c3c([nH]c2c1)[C@H](CO)N(C(C)=O)CC31CCN(C(=O)Nc2ccccc2)CC1 [Compound 35, (R)-2′-acetyl-1′-(hydroxymethyl)-7′-methoxy-N-phenyl-1′,2′,3′,9′-tetrahydrospiro[piperidine-4,4′-pyrido[3,4-b]indole]-1-carboxamide] | 175 to 410 nM |
| COc1ccc2c3c(n(C)c2c1)[C@H](CO)N(C(=O)Nc1ccc(F)cc1)CC31CCN(Cc2cccnc2)CC1 [Compound 117, (R)-N-(4-fluorophenyl)-1′-(hydroxymethyl)-7′-methoxy-9′-methyl-1-(pyridin-3-ylmethyl)-3′,9′-dihydrospiro[piperidine-4,4′-pyrido[3,4-b]indole]-2′(1′H)-carboxamide] | 1610 nM |
| COc1ccc2c3c([nH]c2c1)[C@H](CO)N(C(C)=O)CC31CCN(C(=O)Nc2cc(F)ccc2F)CC1 [Compound 55, (R)-2′-acetyl-N-(2,5-difluorophenyl)-1′-(hydroxymethyl)-7′-methoxy-1′,2′,3′,9′-tetrahydrospiro [piperidine-4,4′-pyrido[3,4-b]indole]-1-carboxamide] | 321 to 719 nM |
| COc1ccc2c3c([nH]c2c1)C(CO)N(C(=O)Nc1ccc(F)cc1)CC31CCN(Cc2cc(-c3ccccc3)on2)CC1 (stereo in doubt) [Compound 111, (R)-N-(4-fluorophenyl)-1′-(hydroxymethyl)-7′-methoxy-1-((5-phenylisoxazol-3-yl)methyl)-3′,9′-dihydrospiro [piperidine-4,4′-pyrido[3,4-b]indole]-2′(1′H)-carboxamide] | 451 nM |

same assay, conditions: read-out: EC^50 Dd2

| Compound | EC50 |
| --- | --- |
| Mixture of (1R,3′R) and (1R,3′S)-2-acetyl-1- (((tert-butyldimethylsilyl) oxy)methyl)-N- (2-fluorophenyl)-7-methoxy- 1,2,3,9-tetrahydrospiro [pyrido[3,4-b]indole- 4,3′-pyrrolidine]-1′- carboxamide compound with (1R,3′S)- 2-acetyl-1- (((tert-butyldimethylsilyl) oxy)methyl)-N-(2- fluorophenyl)-7-methoxy- 1,2,3,9- tetrahydrospiro[pyrido [3,4-b]indole-4-3′- pyrrolidine]-1′- carboxamide (1:1) [Compound 75] | 3210 nM |
